Data published in patent publication US20240269204A1, “COMPOSITION FOR ALLEVIATING SKIN DAMAGE CAUSED BY HYPOXIA CONTAINING SACCHAROMYCES CEREVISIAE STRAIN” (AMOREPACIFIC CORPORATION, priority 2023, published 2024).

What was measured:
MMP1 = MMP1 gene expression by qPCR in CoCl2-induced hypoxic keratinocytes; format: cell-based; conditions: keratinocytes (HEKn) treated with 200 μM CoCl2, 2.5 µM EGCG, cultured for 18 hours
Procedure: (§1) First, keratinocytes (HEKn) (onza, Switzerland) were treated with 200 μM CoCl2 to induce a hypoxic environment. After that, the expression level of hypoxia-inducible factor 1-alpha (HIF1A) that was known to be expressed under hypoxia was compared with that before the treatment with CoCl2 (CTL in FIG. 1) to confirm that the expression level of HIF1A increased compared with that before the treatment with CoCl2 (FIG. 1), and thus skin (keratinocytes) damaged by hypoxia (hereinafter referred to as hypoxic keratinocytes) was prepared. Thereafter, in order to verify the effect of the strain isolated in Example 1 on the alleviation of skin damage due to hypoxia, the hypoxic keratinocytes were treated with the extract prepared in Example 2 at various concentrations and then cultured for 18 hours. […] Specifically, 10 μL of universal master mix (Taqman 2X Universal PCR mix, Applied Biosystems, Cat. No. 4304437) and 1 μL of TaqMan probe were added, 5 μL of CDNA was added to obtain a total volume of 20 μL, and PCR was performed using the Applied biosystem 7500 fast real time PCR system and the provided standard protocol. The expression of MMP1, an aging-related gene, and COX2, an inflammation-related gene, was examined through qPCR, and the results are illustrated in FIGS. 2 and 3. At this time, EGCG was used as Comparative Example. […]

COX2 = COX2 gene expression by qPCR in CoCl2-induced hypoxic keratinocytes; format: cell-based; conditions: keratinocytes (HEKn) treated with 200 μM CoCl2, EGCG at 2.5 ppm, cultured for 18 hours
Procedure: as §1

## O=C(O[C@@H]1Cc2c(O)cc(O)cc2O[C@@H]1c1cc(O)c(O)c(O)c1)c1cc(O)c(O)c(O)c1 [EGCG]
MMP1
  inhibition of MMP1 overexpressed by hypoxia (expression level of MMP1, FIG. 2): cannot inhibit MMP1 overexpressed by hypoxia
COX2
  inhibition of COX2 overexpressed by hypoxia (expression level of COX2, FIG. 3): cannot inhibit expression of COX2 overexpressed by hypoxia
